15 compounds from article PMC6270165, “Synthesis and Biological Evaluation of 3-Benzisoxazolyl-4-indolylmaleimides as Potent, Selective Inhibitors of Glycogen Synthase Kinase-3β” (Molecules, 2013) can be followed below.

Format in all cases: biochemical
The target of one experiment is T1, GSK-3β (Homo sapiens, UniProt P49841).
T1 construct: GST (N, cleaved yes); made in house; host or cells: Escherichia coli BL21-Codon Plus (DE3)
Put plainly: GSK-3β kinase assay (Z'-LYTE Kinase Assay kit Ser/Thr 9 Peptide). The following applies: for IC50: 50 nM enzyme, 30 μM ATP, 2 μM substrate peptide, triplicate, mean ± SE, read-out: GSK-3β inhibitory activity IC50 (nM) ± SE; for Selectivity for GSK-3β over other tested kinases: versus PKC-epsilon, JAK2, BRAF, IKK2 and Drak2. As for the experimental part:
(§1) GSK3β belongs to CMGC family. Here, the other family members were used to evaluate the selectivity of GSK3β inhibitors, including PKC-epsilon (AGC family), JAK2 (TK family), Braf (TKL family), DRAK2 (CAMK family) and IKKβ (other family).The recombinant GST-GSK-3βprotein was expressed in Escherichia coli strain BL21-Codon Plus (DE3), purified by GSTrap affinity chromatography, and cleaved by thrombin. The GSK-3β kinase assay was carried out with the Z´-LYTETM Kinase Assay kit Ser/Thr 9 Peptide substrate (Invitrogen, Grand, NY, USA) in 10 μL reaction volume containing 50 nM enzyme, 30 μM ATP and 2 μM substrate peptide. Drak2 Proteins were presented by professor Jiang-ping Wu (Laboratory of Immunology, Research Centre, CHUM, Notre Dame Hospital, Pavilion DeSève). The Drak2 kinase reaction was performed in a final assay volume of 3.4 μL using the ADP-GLO Kinase Assay Kit (Promega, Madison, WI, USA), according the ADP-GLO protocol and read on an EnVision plate reader. The recombinant PKC-epsilon, IKKβ, and JAK2 with N-terminal His-tag were expressed using baculovirus expression system and purified with Ni-Beads. BRAF protein was from Carna Biosciences, Inc. (Kobe Port Island, Japan). And the related kinase reactions were performed in a final assay volume of 10 μL using the related HTRF Assay Kit (Cisbio, Codolet, France). Reactions were according the HTRF protocol and read on an EnVision plate reader. All reactions were carried out in triplicate. […] Data were expressed as mean ± SE.

Another experiment has as its target T2, PKC-epsilon (Homo sapiens, UniProt Q02156).
T2 construct: His-tag (N); made in house
T2 sequence (Q02156 1-737): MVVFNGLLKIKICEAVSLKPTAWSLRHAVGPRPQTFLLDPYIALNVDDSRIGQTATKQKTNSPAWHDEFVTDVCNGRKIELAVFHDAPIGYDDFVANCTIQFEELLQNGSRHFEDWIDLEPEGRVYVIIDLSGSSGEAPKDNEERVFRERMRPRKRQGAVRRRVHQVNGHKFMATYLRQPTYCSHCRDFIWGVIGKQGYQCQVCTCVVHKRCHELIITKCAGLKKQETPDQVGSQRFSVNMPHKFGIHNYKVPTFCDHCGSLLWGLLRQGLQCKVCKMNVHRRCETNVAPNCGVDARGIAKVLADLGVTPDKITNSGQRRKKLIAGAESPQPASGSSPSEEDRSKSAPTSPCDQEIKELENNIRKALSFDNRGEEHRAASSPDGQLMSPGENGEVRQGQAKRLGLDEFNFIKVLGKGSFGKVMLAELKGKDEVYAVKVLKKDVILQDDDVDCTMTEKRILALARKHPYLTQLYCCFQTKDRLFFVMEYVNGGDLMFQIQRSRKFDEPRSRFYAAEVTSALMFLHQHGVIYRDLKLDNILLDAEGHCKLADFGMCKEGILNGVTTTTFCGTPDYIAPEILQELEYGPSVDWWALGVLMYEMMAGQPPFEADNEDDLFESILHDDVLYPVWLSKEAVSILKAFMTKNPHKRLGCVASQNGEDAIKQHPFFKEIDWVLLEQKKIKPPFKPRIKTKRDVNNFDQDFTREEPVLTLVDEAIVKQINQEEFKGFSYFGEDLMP
Put plainly: PKC-epsilon kinase assay (HTRF). Conditions: read-out: PKC-epsilon inhibition% at 0.8 μg/mL (~2 μM). As for the experimental part: as §1
(In general: In TR-FRET formats the signal depends on donor and acceptor labels being close together.)

The next experiment deals with T3, JAK2 (Homo sapiens, UniProt O60674).
T3 construct: His-tag (N); made in house
Put plainly: JAK2 kinase assay (HTRF). Conditions: read-out: JAK2 inhibition% at 0.8 μg/mL (~2 μM). The method, then: as §1

Another experiment deals with T4, BRAF (Homo sapiens, UniProt P15056).
T4 construct: purchased Carna Biosciences, Inc
Put plainly: BRAF kinase assay (HTRF). Conditions: read-out: BRAF inhibition% at 0.8 μg/mL (~2 μM). As for the experimental part: as §1

The target in another experiment is T5, IKK2 (Homo sapiens, UniProt O14920).
T5 construct: His-tag (N); made in house
T5 sequence (O14920 1-756): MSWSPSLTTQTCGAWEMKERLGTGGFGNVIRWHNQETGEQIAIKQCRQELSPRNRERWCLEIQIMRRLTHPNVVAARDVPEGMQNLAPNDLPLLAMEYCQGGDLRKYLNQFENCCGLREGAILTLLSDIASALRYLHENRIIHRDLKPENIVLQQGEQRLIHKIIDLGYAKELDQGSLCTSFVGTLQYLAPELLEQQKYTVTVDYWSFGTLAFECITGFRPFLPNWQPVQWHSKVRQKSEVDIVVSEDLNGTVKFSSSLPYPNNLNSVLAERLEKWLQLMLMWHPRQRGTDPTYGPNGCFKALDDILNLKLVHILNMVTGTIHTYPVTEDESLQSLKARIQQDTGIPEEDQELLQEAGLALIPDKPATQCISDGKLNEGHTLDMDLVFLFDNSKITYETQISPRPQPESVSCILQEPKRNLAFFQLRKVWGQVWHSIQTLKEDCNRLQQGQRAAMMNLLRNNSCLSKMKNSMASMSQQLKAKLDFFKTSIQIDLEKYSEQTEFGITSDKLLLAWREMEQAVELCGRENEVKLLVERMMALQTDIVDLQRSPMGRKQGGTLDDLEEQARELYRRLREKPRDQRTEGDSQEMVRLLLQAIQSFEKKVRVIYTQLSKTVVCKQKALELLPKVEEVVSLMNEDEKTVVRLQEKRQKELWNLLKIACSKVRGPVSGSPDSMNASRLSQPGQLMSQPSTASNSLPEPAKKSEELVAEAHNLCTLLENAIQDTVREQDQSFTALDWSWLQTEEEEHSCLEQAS
Put plainly: IKK2 (IKKβ) kinase assay (HTRF). Conditions: read-out: IKK2 inhibition% at 0.8 μg/mL (~2 μM). As for the experimental part: as §1

A further experiment deals with T6, Drak2 (Homo sapiens, UniProt O94768).
T6 sequence (O94768 1-372): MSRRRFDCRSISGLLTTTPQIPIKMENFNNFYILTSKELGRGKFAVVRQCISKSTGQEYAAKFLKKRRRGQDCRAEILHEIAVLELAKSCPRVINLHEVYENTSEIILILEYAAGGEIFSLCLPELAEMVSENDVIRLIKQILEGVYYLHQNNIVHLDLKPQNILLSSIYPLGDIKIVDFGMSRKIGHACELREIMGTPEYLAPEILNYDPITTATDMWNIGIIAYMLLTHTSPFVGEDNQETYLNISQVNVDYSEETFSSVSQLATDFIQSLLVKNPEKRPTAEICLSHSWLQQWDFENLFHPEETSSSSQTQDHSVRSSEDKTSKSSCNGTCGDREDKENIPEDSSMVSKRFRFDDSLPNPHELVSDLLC
The experiment can be described thus: Drak2 kinase assay (ADP-GLO). Conditions: read-out: Drak2 inhibition% at 0.8 μg/mL (~2 μM). As for the experimental part: as §1
On the technique in general: In ADP-Glo the light output rises with the ADP produced.

By IC50 is commonly meant the concentration that inhibits the measured activity by half.

T1 sequence (P49841 whole entry): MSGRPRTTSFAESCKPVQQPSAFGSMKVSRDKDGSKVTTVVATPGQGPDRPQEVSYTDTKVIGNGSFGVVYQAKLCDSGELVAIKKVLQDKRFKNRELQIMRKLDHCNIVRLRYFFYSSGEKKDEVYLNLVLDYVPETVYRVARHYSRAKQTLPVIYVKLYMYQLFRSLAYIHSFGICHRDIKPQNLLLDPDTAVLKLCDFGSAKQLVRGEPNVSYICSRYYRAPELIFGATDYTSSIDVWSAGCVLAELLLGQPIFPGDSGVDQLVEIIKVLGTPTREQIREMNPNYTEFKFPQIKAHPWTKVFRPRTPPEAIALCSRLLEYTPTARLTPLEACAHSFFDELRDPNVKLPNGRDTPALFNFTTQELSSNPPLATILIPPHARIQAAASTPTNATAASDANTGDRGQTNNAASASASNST
T3 sequence (O60674 whole entry): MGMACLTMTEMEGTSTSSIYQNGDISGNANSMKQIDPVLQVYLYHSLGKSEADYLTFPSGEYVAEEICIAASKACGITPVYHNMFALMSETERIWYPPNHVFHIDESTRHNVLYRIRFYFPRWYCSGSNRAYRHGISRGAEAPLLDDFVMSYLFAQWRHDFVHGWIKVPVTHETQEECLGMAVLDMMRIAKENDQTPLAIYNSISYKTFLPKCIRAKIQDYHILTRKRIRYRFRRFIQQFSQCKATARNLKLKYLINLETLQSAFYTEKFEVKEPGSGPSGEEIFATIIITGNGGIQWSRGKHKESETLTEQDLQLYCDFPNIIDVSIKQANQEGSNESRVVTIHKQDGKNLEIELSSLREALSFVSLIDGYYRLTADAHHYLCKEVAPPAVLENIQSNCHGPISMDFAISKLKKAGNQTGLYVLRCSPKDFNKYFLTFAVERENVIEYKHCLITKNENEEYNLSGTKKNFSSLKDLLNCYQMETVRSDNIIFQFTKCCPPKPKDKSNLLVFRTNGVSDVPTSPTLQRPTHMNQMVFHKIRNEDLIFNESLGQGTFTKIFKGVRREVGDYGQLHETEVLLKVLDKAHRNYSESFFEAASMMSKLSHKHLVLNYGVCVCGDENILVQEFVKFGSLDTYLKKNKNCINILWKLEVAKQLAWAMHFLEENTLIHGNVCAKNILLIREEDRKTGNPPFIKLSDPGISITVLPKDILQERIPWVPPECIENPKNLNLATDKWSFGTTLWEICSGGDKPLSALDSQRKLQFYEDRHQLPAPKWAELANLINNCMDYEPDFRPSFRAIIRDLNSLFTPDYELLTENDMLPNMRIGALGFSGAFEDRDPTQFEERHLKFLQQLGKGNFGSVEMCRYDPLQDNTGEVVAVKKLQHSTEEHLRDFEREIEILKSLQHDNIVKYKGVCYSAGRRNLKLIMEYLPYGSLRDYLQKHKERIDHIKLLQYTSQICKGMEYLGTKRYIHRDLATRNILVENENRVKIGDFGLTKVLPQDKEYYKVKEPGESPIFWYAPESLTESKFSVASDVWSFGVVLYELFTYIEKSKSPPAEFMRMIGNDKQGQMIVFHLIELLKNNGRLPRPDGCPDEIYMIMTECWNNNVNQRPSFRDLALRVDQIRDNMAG
T4 sequence (P15056 whole entry): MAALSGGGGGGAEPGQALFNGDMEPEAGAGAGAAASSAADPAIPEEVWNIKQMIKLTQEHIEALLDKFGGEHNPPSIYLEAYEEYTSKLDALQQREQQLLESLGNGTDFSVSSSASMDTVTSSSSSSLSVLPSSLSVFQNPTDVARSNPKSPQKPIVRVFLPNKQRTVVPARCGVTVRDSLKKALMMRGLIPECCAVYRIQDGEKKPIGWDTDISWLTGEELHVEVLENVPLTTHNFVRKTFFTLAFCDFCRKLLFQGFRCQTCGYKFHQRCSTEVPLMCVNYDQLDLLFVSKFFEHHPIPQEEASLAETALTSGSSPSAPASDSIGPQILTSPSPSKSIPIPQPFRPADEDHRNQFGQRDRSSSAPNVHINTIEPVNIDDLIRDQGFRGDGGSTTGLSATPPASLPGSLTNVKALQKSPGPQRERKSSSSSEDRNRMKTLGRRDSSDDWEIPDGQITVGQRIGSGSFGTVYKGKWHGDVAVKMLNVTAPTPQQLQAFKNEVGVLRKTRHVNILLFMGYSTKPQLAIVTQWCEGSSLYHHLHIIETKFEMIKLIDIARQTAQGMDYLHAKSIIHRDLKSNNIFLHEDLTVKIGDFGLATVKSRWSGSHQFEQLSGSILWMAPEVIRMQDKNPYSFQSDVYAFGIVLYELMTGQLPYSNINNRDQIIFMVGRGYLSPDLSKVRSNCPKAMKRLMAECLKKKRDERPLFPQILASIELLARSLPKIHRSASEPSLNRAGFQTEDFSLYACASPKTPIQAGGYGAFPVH

Take `O=C1NC(=O)C(c2noc3ccccc23)=C1c1c[nH]c2ccccc12` [7a, 3-(Benzo[d]isoxazol-3-yl)-4-(1H-indol-3-yl)-1H-pyrrole-2,5-dione]: the IC50 on GSK-3β was found to be 332 ± 25.7 nM.

`COc1ccc2c(c1)c(C1=C(c3noc4ccccc34)C(=O)NC1=O)cn2CCCN1CCOCC1` [7b, 3-(Benzo[d]isoxazol-3-yl)-4-(5-methoxy-1-(3-morpholinopropyl)-1H-indol-3-yl)-1H-pyrrole-2,5-dione]: the IC50 on GSK-3β amounted to 357 ± 17.1 nM.

With `O=C1NC(=O)C(c2cn(CCCN3CCOCC3)c3cc(Br)ccc23)=C1c1noc2ccccc12` [7d, 3-(Benzo[d]isoxazol-3-yl)-4-(6-bromo-1-(3-morpholinopropyl)-1H-indol-3-yl)-1H-pyrrole-2,5-dione], the IC50 on GSK-3β came to 210 ± 8.9 nM.

For `O=C1NC(=O)C(c2cn(CCCN3CCOCC3)c3cc(Cl)ccc23)=C1c1noc2ccccc12` [7e, 3-(Benzo[d]isoxazol-3-yl)-4-(6-chloro-1-(3-morpholinopropyl)-1H-indol-3-yl)-1H-pyrrole-2,5-dione], the IC50 at GSK-3β stood at 510 ± 20.1 nM.

Consider `O=C1NC(=O)C(c2cn(CCN3CCOCC3)c3ccccc23)=C1c1noc2ccccc12` [7g, 3-(Benzo[d]isoxazol-3-yl)-4-(1-(2-morpholinoethyl)-1H-indol-3-yl)-1H-pyrrole-2,5-dione], for which, at GSK-3β, the half-inhibitory concentration (IC50) turned out to be 615.6 ± 6.1 nM.

As to `O=C1NC(=O)C(c2cn(CCCN3CCOCC3)c3ccccc23)=C1c1noc2ccccc12` [7h, 3-(Benzo[d]isoxazol-3-yl)-4-(1-(3-morpholinopropyl)-1H-indol-3-yl)-1H-pyrrole-2,5-dione], at GSK-3β, the IC50 stood at 138 ± 6 nM.

As for `O=C1NC(=O)C(c2cn(CCCCN3CCOCC3)c3ccccc23)=C1c1noc2ccccc12` [7i, 3-(Benzo[d]isoxazol-3-yl)-4-(1-(4-morpholinobutyl)-1H-indol-3-yl)-1H-pyrrole-2,5-dione], the IC50 at GSK-3β came out at 411 ± 8.2 nM.

With `O=C1NC(=O)C(c2cn(CCCn3ccnc3)c3ccccc23)=C1c1noc2ccccc12` [7j, 3-(1-(3-(1H-Imidazol-1-yl)propyl)-1H-indol-3-yl)-4-(benzo[d]isoxazol-3-yl)-1H-pyrrole-2,5-dione], the IC50 on GSK-3β is 0.73 ± 0.02 nM. In addition, the “GSK-3β inhibitory potency, fold more potent than compound 7a” value on GSK-3β (ratio of IC50 values, versus 7a) is “about 460 fold”. In addition, at GSK-3β, the “Selectivity for GSK-3β over other tested kinases” value is “high selectivity”. For the same compound, the inhibition at 2 µM at PKC-epsilon amounted to 10.9%; on JAK2 it was 4.9%; on BRAF, 0.8%; on IKK2, 3.5%; at Drak2 it was 4.47%.

For `O=C1NC(=O)C(c2cn(CCCCn3ccnc3)c3ccccc23)=C1c1noc2ccccc12` [7k, 3-(1-(4-(1H-Imidazol-1-yl)butyl)-1H-indol-3-yl)-4-(benzo[d]isoxazol-3-yl)-1H-pyrrole-2,5-dione], the IC50 on GSK-3β was found to be 89.8 ± 4.5 nM.

As for `O=C1NC(=O)C(c2cn(CCCn3cncn3)c3ccccc23)=C1c1noc2ccccc12` [7l, 3-(1-(3-(1H-1,2,4-Triazol-1-yl)propyl)-1H-indol-3-yl)-4-(benzo[d]isoxazol-3-yl)-1H-pyrrole-2,5-dione], at GSK-3β, the IC50 came out at 20.9 ± 5.1 nM.

Take `O=C1NC(=O)C(c2cn(CCCN3CCCCC3)c3ccccc23)=C1c1noc2ccccc12` [7m, 3-(Benzo[d]isoxazol-3-yl)-4-(1-(3-(piperidin-1-yl)propyl)-1H-indol-3-yl)-1H-pyrrole-2,5-dione]: the IC50 on GSK-3β turned out to be 512 ± 15.6 nM.

As for `O=C1NC(=O)C(c2cn(CCCN3CCCC3)c3ccccc23)=C1c1noc2ccccc12` [7n, 3-(Benzo[d]isoxazol-3-yl)-4-(1-(3-(pyrrolidin-1-yl)propyl)-1H-indol-3-yl)-1H-pyrrole-2,5-dione], the IC50 on GSK-3β worked out at 659 ± 15.7 nM.

Regarding `Cn1cc(C2=C(c3noc4ccccc34)C(=O)NC2=O)c2ccccc21` [7o, 3-(Benzo[d]isoxazol-3-yl)-4-(1-methyl-1H-indol-3-yl)-1H-pyrrole-2,5-dione], at GSK-3β, the IC50 came to 22.1 ± 1.5 nM. Also, the “Selectivity for GSK-3β over other tested kinases” value at GSK-3β is “high selectivity”. Besides, the inhibition at 2 µM at PKC-epsilon worked out at 21.2%; at JAK2 it was 9.4%; on BRAF, 1.1%; at IKK2 it was 2.9%; at Drak2 it was 13.8%.

For `CCCCn1cc(C2=C(c3noc4ccccc34)C(=O)NC2=O)c2ccccc21` [7p, 3-(Benzo[d]isoxazol-3-yl)-4-(1-butyl-1H-indol-3-yl)-1H-pyrrole-2,5-dione], the IC50 on GSK-3β was 58.7 ± 2.8 nM.

With `O=C1NC(=O)C(c2cn(CCCO)c3ccccc23)=C1c1noc2ccccc12` [7q, 3-(Benzo[d]isoxazol-3-yl)-4-(1-(3-hydroxypropyl)-1H-indol-3-yl)-1H-pyrrole-2,5-dione], the IC50 at GSK-3β turned out to be 38.9 ± 2.6 nM.
